According to US10568834B2, “Delivery systems for propofol” (Yissum Research Development Company of the Hebrew …, priority 2015, dated 2020):

Experiments:
[1] = Self-diffusion NMR (SD-NMR); type: physicochemical; settings: for Diffusion coefficient of EtOH / Diffusion coefficient of PEG400 / Diffusion coefficient of PG / Diffusion coefficient of Solutol / Diffusion coefficient of the Loaded specie: B9A loaded with 1 wt % of the specie
Experimental: In order to determine the structure of the oil droplets (or micelles) of the microemulsions, self-diffusion NMR analysis was carried out. SD-NMR is able to locate each component within the microemulsion via measurements of its diffusion coefficient.
NMR measurements were performed with a Bruker AVII 500 spectrometer equipped with GREAT 1/10 gradients, a 5 mm BBO and a 5 mm BBI probe, both with a z-gradient coil and with a maximum gradient strength of 0.509 and 0.544 T m^−1, respectively. Diffusion was measured using an asymmetric bipolar longitudinal eddy-current delay (bpLED) experiment, or and asymmetric bipolar stimulated echo (known as one-shot) experiment with convection compensation and an asymmetry factor of 20%, ramping the strongest gradient from 2% to 95% of maximum strength in 32 steps. The spectrum was processed with the Bruker TOPSPIN software. NMR spectra were recorded at 25±0.2° C. The components were identified by their chemical shift in 1H NMR.

[2] = Microemulsion formation/appearance with propofol-like species or another surfactant; type: physicochemical; settings: B9A loaded with 1 wt % of the specie, FIGS. 5A-5D
Experimental: The relationship between the surfactant and the propofol with respect to binding in the microemulsion-composition was assessed by loading B9A with 1 wt % of species similar in their structure to propofol.

[3] = Formulation with Tween 60, Loaded
[4] = Formulation with Tween 60, Unloaded
[5] = B6A microemulsion, Loaded (1 wt % propofol)
[6] = B9A microemulsion, Loaded (1 wt % propofol)
[7] = Formulation with Tween 80, Loaded
[8] = Formulation with Tween 80, Unloaded

Molecule	Diffusion coefficient of the component [1, 5]	Diffusion coefficient of EtOH [1]	Diffusion coefficient of PEG400 [1]	Diffusion coefficient of PG [1]	Diffusion coefficient of Solutol [1]	Diffusion coefficient of the Loaded specie [1]	Diffusion coefficient of the component [1, 6]	also measured
polysorbate 60 [Tween 60]	–	–	–	–	–	–	–	Diffusion coefficient of the component [1, 3]: 1.63 × 10^−11 m^2/sec; Diffusion coefficient of the component [1, 4]: 0.92 × 10^−11 m^2/sec
Cc1cc(C(C)(C)C)c(O)c(C(C)(C)C)c1 [BHT]	–	–	–	–	–	–	–	Appearance of the system loaded with the specie [2]: not completely transparent
CC(C)c1cccc(C(C)C)c1O [Propofol, 2,6-diisopropyl phenol]	1.02 × 10^−11 m^2/sec	98.2 ×10^−11 m^2/sec	26.3 ×10^−11 m^2/sec	84.5 ×10^−11 m^2/sec	1.50 ×10^−11 m^2/sec	1.54 ×10^−11 m^2/sec	1.54 × 10^−11 m^2/sec	Diffusion coefficient of the component [1, 3]: 1.04 × 10^−11 m^2/sec; Diffusion coefficient of the component [1, 7]: 1.73 × 10^−11 m^2/sec
COc1ccc(O)c(C(C)(C)C)c1 [drawing 4]	–	91.2 ×10^−11 m^2/sec	24.5 ×10^−11 m^2/sec	78.3 ×10^−11 m^2/sec	1.75 ×10^−11 m^2/sec	1.78 ×10^−11 m^2/sec	–	–
CC(O)CO (stereo not shown) [Propylene glycol, propylene glycol]	5.22 × 10^−10 m^2/sec	–	–	–	–	–	8.45 × 10^−10 m^2/sec	Diffusion coefficient of the component ([1]; B6A microemulsion, Unloaded): 6.68 × 10^−10 m^2/sec; Diffusion coefficient of the component ([1]; B9A microemulsion, Unloaded): 5.96 × 10^−10 m^2/sec; Diffusion coefficient of the component [1, 3]: 3.24 × 10^−10 m^2/sec; Diffusion coefficient of the component [1, 4]: 4.96 × 10^−10 m^2/sec; Diffusion coefficient of the component [1, 7]: 4.82 × 10^−10 m^2/sec; Diffusion coefficient of the component [1, 8]: 5.43 × 10^−10 m^2/sec
Cc1cc(C(C)(C)C)c(O)c(C(C)(C)C)c1 [drawing 5]	–	98.2 ×10^−11 m^2/sec	24.3 ×10^−11 m^2/sec	79.1 ×10^−11 m^2/sec	1.75 ×10^−11 m^2/sec	1.58 ×10^−11 m^2/sec	–	–
polysorbate 80 [Tween 80]	–	–	–	–	–	–	–	Diffusion coefficient of the component [1, 7]: 2.08 × 10^−11 m^2/sec; Diffusion coefficient of the component [1, 8]: 1.73 × 10^−11 m^2/sec
CC(C)c1cccc(C(C)C)c1N	–	94.6 ×10^−11 m^2/sec	26.2 ×10^−11 m^2/sec	44.8 ×10^−11 m^2/sec	1.76 ×10^−11 m^2/sec	2.15 ×10^−11 m^2/sec	–	–
O [Water, water]	1.37 × 10^−9 m^2/sec	–	–	–	–	–	1.62 × 10^−9 m^2/sec	Diffusion coefficient of the component ([1]; B6A microemulsion, Unloaded): 1.76 × 10^−9 m^2/sec; Diffusion coefficient of the component ([1]; B9A microemulsion, Unloaded): 1.52 × 10^−9 m^2/sec; Diffusion coefficient of the component [1, 3]: 1.12 × 10^−9 m^2/sec; Diffusion coefficient of the component [1, 4]: 1.86 × 10^−9 m^2/sec; Diffusion coefficient of the component [1, 7]: 1.24 × 10^−9 m^2/sec; Diffusion coefficient of the component [1, 8]: 1.91 × 10^−9 m^2/sec
CC(C)c1ccc(O)c(C(C)C)c1 [drawing 3]	–	96.6 ×10^−11 m^2/sec	26.3 ×10^−11 m^2/sec	73.6 ×10^−11 m^2/sec	1.63 ×10^−11 m^2/sec	1.75 ×10^−11 m^2/sec	–	–
polyethylene glycol 15-hydroxystearate [Solutol]	1.62 × 10^−11 m^2/sec	–	–	–	–	–	1.50 × 10^−11 m^2/sec	Diffusion coefficient of the component ([1]; B6A microemulsion, Unloaded): 1.45 × 10^−11 m^2/sec; Diffusion coefficient of the component ([1]; B9A microemulsion, Unloaded): 1.94 × 10^−11 m^2/sec
CC(C)(C)c1cc(O)ccc1O [TBHQ]	–	–	–	–	–	–	–	Appearance of the system loaded with the specie [2]: classic milky emulsion
COc1ccc(O)c(C(C)(C)C)c1 [BHA]	–	–	–	–	–	–	–	Appearance of the system loaded with the specie [2]: not completely transparent
CCO [Ethanol, ethanol]	6.91 × 10^−10 m^2/sec	–	–	–	–	–	9.82 × 10^−10 m^2/sec	Diffusion coefficient of the component ([1]; B6A microemulsion, Unloaded): 8.83 × 10^−10 m^2/sec; Diffusion coefficient of the component ([1]; B9A microemulsion, Unloaded): 7.65 × 10^−10 m^2/sec
CC(C)c1ccc(O)c(C(C)C)c1 [2,4-isomer]	–	–	–	–	–	–	–	Appearance of the system loaded with the specie [2]: not completely transparent
